In patent US8889678B2, “Acyl guanidine derivatives modulating the hedgehog protein signaling pathway” (Centre National de la Recherche Scientifique, priority 2009, dated 2014):
Like-named read-outs stand apart in the source and are kept apart here.

Legend:
[1] = tested on: Hedgehog protein signaling pathway; assay: Inhibition of SAG-induced alkaline phosphatase activity (differentiation) in C3H10T1/2 cells; format: cell-based; conditions: read-out: IC50 (concentration which inhibits 50% of the alkaline phosphatase activity)
Protocol: The compounds of formula (I) to be tested were dissolved in dimethyl sulfoxide until a concentration of 10 mM was obtained, and then stored at a temperature of −20° C. until use.
The pluripotent fibroblast cell line C3H10T1/2 was cultured under the conditions recommended by the American Type Culture Collection (ATCC).
Activation with SAG causes the cell line to differentiate and allows the cells to express alkaline phosphatase. It was thus possible to measure the activity of the Hedgehog protein signaling pathway by measuring the alkaline phosphatase activity.
The C3H10T1/2 cells were seeded onto 96-well plates at a density of 5×10^3 cells per well, 24 hours before the addition of the test compounds at a concentration ranging from 1 nM to 30 μM and in the presence of 0.1 μM of SAG, using DMEM (Dulbecco's Modified Eagle's Medium) with 10% fetal calf serum, as culture medium. The tests were carried out in quadruplicate. The plates were then incubated for 5 to 6 days at a temperature of 37° C. under an atmosphere of 5% CO2. The cells were then washed in a cold phosphate buffer (Phosphate Buffered Saline: PBS), and then lysed by sonication at 4° C. in 50 μL of solution containing 0.9% of NaCl and 0.2% of Triton X-100.

[2] = target: T1, mouse Smoothened receptor (Mus musculus, UniProt P56726); assay: Competition with bodipycyclopamine binding on HEK293 cells transfected with mouse Smoothened; conditions: 5 nM bodipycyclopamine, 2 hours at 37° C., read-out: IC50 (concentration which inhibits 50% of the bodipycyclopamine binding)
T1 construct: expressed in transfected cells; host or cells: HEK293 cells, transiently transfected with Fugene6
T1 sequence (P56726 33-793): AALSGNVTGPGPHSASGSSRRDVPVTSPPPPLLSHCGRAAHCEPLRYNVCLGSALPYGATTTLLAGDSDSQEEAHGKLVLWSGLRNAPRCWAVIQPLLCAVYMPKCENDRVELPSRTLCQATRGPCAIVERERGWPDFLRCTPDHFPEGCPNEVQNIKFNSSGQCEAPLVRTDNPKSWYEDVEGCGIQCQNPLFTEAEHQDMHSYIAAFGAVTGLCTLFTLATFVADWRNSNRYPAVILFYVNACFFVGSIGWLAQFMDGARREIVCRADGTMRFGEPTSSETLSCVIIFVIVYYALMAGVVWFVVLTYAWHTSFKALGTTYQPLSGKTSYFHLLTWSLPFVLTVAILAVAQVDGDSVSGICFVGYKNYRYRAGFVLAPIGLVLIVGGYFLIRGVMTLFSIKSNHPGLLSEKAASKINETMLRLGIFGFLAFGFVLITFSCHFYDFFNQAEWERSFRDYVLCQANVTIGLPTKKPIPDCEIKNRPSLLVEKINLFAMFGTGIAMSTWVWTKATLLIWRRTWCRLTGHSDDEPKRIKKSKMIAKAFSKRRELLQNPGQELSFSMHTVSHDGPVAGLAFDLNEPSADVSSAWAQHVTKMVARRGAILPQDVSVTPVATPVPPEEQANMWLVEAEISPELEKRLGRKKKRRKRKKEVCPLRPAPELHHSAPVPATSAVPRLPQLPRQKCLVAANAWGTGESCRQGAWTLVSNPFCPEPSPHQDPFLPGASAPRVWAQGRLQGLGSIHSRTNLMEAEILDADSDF
Protocol: HEK293 cells are seeded at 70 000 cells per well onto glass cover slips treated with poly-D-lysine in a 24-well plate, and transfected the following day with 0.25 μg of plasmid encoding the mouse Smoothened protein using 0.7 μl of Fugene6 (Roche biochemicals) according to the protocol described by the supplier (i.e. 0.7 μl of Fugene 6 are added to 24 μl of DMEM without any additive, in each well. The mixture is then incubated for 5 minutes at ambient temperature, 0.25 μg of plasmid DNA are added, and then the whole is mixed and incubated for 20 to 30 minutes at ambient temperature. 25 μl of the mixture thus prepared are then added directly to the cell culture medium, in each well of the plate containing 24 wells). After 48 hours, the culture medium is removed, and the cells are rinsed once with 1 ml of a PBS (Phosphate Buffered Saline) phosphate buffer solution, and then fixed for 20 minutes in the presence of an ice-cold solution of paraformaldehyde (PFA) at 4%, and 0.12 M glucose in a PBS phosphate buffer solution. The cells are then rinsed once and washed twice for 5 minutes with 1 ml of a PBS phosphate buffer solution containing 0.5% of fetal calf serum (PBS-FCS). […] The cells are then washed twice for 5 minutes with 1 ml of PBS-FCS, then brought into contact with 1 ml of a 1×PBS phosphate buffer solution. Finally, the cover slips are mounted on a glass slide in the presence of Vectashield containing DAPI (4′,6′-diamidino-2-phenylindole) so as to label the cell nuclei (Vector). […] The fluorescence intensity is then analyzed using the Simple PCI 6.2 software (Hamamatsu Corporation), and then related to the surface area of the nuclei present on the photograph.

cells = conditions: Borzillo et al., Curr. Top Med. Chem., 2005; cited from earlier work
Shh pathway = assay: In vivo inhibition of Shh-induced Patched mRNA in the subventricular zone of adult mouse brain (in situ hybridization); conditions: adult mice, 4.5 pmol injected with recombinant Shh protein (290 ng) into the lateral ventricle, in situ hybridization 48 hours after injection
Protocol: Adult male Swiss mice (8 weeks old, 35 g) were anesthetized with a mixture of ketamine (Mérial®, Lyon, France) (0.1 mg/g) and xylazine (Bayer®, Puteaux, France) (0.01 mg/g) by intraperitoneal (i. p.) injection. The recombinant Shh protein (290 ng in a buffer solution containing 150 mM of sodium chloride NaCl and 0.5 mM of dithitheritol DTT), was diluted in 4.5 μl of a solution of 2-hydroxypropyl-beta-cyclodextrin (HBC) at 45% in PBS optionally containing 4.5 pmol of Cur61414 or of compound 24. This mixture was injected stereotaxically into the right lateral ventricle (LV) (n=5 animals for each group), at the following coordinates given relative to the Bregma axis: anteroposterior+0.2 mm; lateral+0.8 mm; dorsoventral−2.5 mm. The reference atlas for the stereotaxic coordinates is: The mouse brain in stereotaxic coordinates, Georges Paxinos, Keith B. J., Franklin, 2nd edition, 2001, Academic Press (San Diego, United States).
The detection of the Patched messenger RNA by in situ hybridization was carried out 48 hours after the injection, as described by Traiffort et al., Eur. J. Neursci, 1999, 11, 3199-3214.

[3] = Mus musculus, C3H 10T1/2, after induction with 0.1 μM SAG

IC50 [1, 3]	Compound	also measured
0.03 to 0.3 µM	COc1cc(C(=O)NC(=N)Nc2ccc(C)c(C(=O)Nc3ccccc3)c2)cc(OC)c1OC [Compound 22, 3,4,5-trimethoxy-N—(N-(4-methyl-3-(phenylcarbamoyl)phenyl)-carbamimidoyl)benzamide]	–
0.3 to 1 µM	COc1cc(C(=O)NC(=N)Nc2cccc(-n3ccc4ccccc43)c2)cc(OC)c1OC [Compound 29, N—(N-(3-(1H-indol-1-yl)phenyl)carbamimidoyl)-3,4,5-trimethoxybenzamide]	–
0.003 to 0.03 µM	CS(=O)(=O)c1ccc(C(=O)Nc2ccc(Cl)c(-c3ccccn3)c2)c(Cl)c1 [GDC-0449, reference compound]	–
0.3 to 1 µM	COc1cc(C(=O)NC(=N)Nc2ccc(Cl)c(C(=O)Nc3ccccc3)c2)cc(OC)c1OC [Compound 21, N—(N-(4-chloro-3-(phenylcarbamoyl)phenyl)carbamimidoyl)-3,4,5-trimethoxybenzamide]	–
0.03 to 0.3 µM	COc1cc(C(=O)NC(=N)Nc2cccc(NC(=O)c3ccc(N4CCOCC4)cc3)c2)cc(OC)c1OC [Compound 18, 3,4,5-trimethoxy-N—(N-(3-(4-morpholinobenzamido)phenyl)-carbamimidoyl)benzamide]	–
0.3 to 1 µM	COc1ccc(NC(=O)c2cc(NC(=N)NC(=O)c3cc(OC)c(OC)c(OC)c3)ccc2Cl)cc1 [Compound 20, N—(N-(4-chloro-3-(4-methoxyphenylcarbamoyl)phenyl)-carbamimidoyl)-3,4,5-trimethoxybenzamide]	melting point: 105 °C
0.3 to 1 µM	COc1cc(C(=O)NC(=N)Nc2ccc(Cl)c(NC(=O)c3ccccc3)c2)cc(OC)c1OC [Compound 16, N—(N-(3-benzamido-4-chlorophenyl)carbamimidoyl)-3,4,5-trimethoxybenzamide]	–
–	COc1cc(C(=O)NC(=N)Nc2ccc(Cl)c(NC(=O)Nc3ccccc3)c2)cc(OC)c1OC [Compound 38, N—(N-(4-chloro-3-(3-phenylureido)phenyl)carbamimidoyl)-3,4,5-trimethoxybenzamide]	melting point: 127 °C
0.003 to 0.03 µM	COc1cc(C(=O)NC(=N)Nc2cccc(NC(=O)c3ccc(-c4ccc(F)cc4)cc3)c2)cc(OC)c1OC [Compound 23, 4′-fluoro-N-(3-(3-(3,4,5-trimethoxybenzoyl)guanidino)phenyl)-biphenyl-4-carboxamide]	IC50 [2]: 0.003 to 0.03 µM
0.003 to 0.03 µM	COc1cc(C(=O)NC(=N)Nc2ccc(C)c(NC(=O)c3ccc(-c4ccc(F)cc4)cc3)c2)cc(OC)c1OC [Compound 30, 4′-fluoro-N-(2-methyl-5-(3-(3,4,5-trimethoxybenzoyl)-guanidino)phenyl)biphenyl-4-carboxamide]	–
0.3 to 1 µM	COc1cc(C(=O)NC(=N)Nc2cccc(NC(=O)c3ccccc3)c2)cc(OC)c1OC [Compound 15, N—(N-(3-benzamidophenyl)carbamimidoyl)-3,4,5-trimethoxybenzamide]	–
–	cyclopamine [reference compound]	IC50 ([1]; after induction with 0.1 μM SAG): 0.3 to 1 µM; concentrations cytotoxic for cells (cells): above 10 μM
0.03 to 0.3 µM	COc1cc(C(=O)NC(=N)Nc2ccc(Cl)c(NC(=O)c3ccc(-c4ccccc4)cc3)c2)cc(OC)c1OC [Compound 17, N-(2-chloro-5-(3-(3,4,5-trimethoxybenzoyl)guanidino)phenyl)-biphenyl-4-carboxamide]	–
0.3 to 1 µM	COc1cccc(CN(C(=O)CC(C)(C)C)C2CC(C(=O)N3CCNCC3)N(Cc3ccc4c(c3)OCO4)C2)c1 (stereo not shown) [Cur61414, reference compound]	IC50 [2]: 0.03 to 0.3 µM; Induction of the Ptc gene messenger RNA in the subventricular zone (Shh pathway): disappears
0.3 to 1 µM	COc1cc(C(=O)NC(=N)Nc2cccc(-c3cn4ccsc4n3)c2)cc(OC)c1OC [Compound 28]	–
0.03 to 0.3 µM	COc1cc(C(=O)NC(=N)Nc2cccc(-c3cc4ccccc4[nH]3)c2)cc(OC)c1OC [Compound 19, N—(N-(3-(1H-indol-2-yl)phenyl)carbamimidoyl)-3,4,5-trimethoxybenzamide]	melting point: 149 °C
0.003 to 0.03 µM	COc1cc(C(=O)NC(=N)Nc2ccc(C)c(NC(=O)c3ccc(-c4ccccc4)cc3)c2)cc(OC)c1OC [Compound 24, N-(2-methyl-5-(3-(3,4,5-trimethoxybenzoyl)guanidino)phenyl)-biphenyl-4-carboxamide]	IC50 [2]: 0.003 to 0.03 µM; Induction of the Ptc gene messenger RNA in the subventricular zone (Shh pathway): disappears
